# Molecular target: α7 nAChRs (Homo sapiens (Human), UniProt P36544)
# Test: not given
# Format: cell-based
# Settings: compounds at 100 μM, relative to 1 mM ACh
# Method: (§1) Compounds of the invention were tested for effects on the function of human α4β2, α3β4 and α7 nicotinic acetylcholine receptors (nAChRs) expressed heterologously in Xenopus oocytes. […] Expression in oocytes was obtained as follows: pCI (Promega, UK) plasmid containing human α4, β2, β4 or α7 complementary DNA were injected as previously described (Moroni et al., 2006). To express (α4)3(β2)2 nACh receptors, a mixture of 10α4:1β2 cDNAs was injected into the nucleus of oocytes, whereas for (α4)2(β2)3 receptors the cDNA ratio injected was 1α4:10β2.
# (§2) Functional studies: Recordings were performed manually using a Geneclamp amplifier (Molecular Devices, USA) or using an automated HiClamp system. In both cases the oocytes were impaled with two electrodes filled with 3 M KCl and the cells were held at −60 mV throughout the experiments.
# (§3) Oocyte isolation and two-electrode voltage-clamp recordings on oocytes were carried out as previously described (Moroni et al., 2006; Carbone et al., 2009). […] A minimum interval of 5 min was allowed between agonist applications to ensure reproducible recordings. Oocytes were exposed to increasing concentrations of the compounds until no further increases in the response amplitude were obtained. This concentration was taken as the concentration that causes maximal responses on the receptors tested. The data summarised in Tables 1-4 were obtained from at least 5 experiments carried out on oocytes obtained from at least three different donors.
# Sequence of α7 nAChRs (P36544 23-502): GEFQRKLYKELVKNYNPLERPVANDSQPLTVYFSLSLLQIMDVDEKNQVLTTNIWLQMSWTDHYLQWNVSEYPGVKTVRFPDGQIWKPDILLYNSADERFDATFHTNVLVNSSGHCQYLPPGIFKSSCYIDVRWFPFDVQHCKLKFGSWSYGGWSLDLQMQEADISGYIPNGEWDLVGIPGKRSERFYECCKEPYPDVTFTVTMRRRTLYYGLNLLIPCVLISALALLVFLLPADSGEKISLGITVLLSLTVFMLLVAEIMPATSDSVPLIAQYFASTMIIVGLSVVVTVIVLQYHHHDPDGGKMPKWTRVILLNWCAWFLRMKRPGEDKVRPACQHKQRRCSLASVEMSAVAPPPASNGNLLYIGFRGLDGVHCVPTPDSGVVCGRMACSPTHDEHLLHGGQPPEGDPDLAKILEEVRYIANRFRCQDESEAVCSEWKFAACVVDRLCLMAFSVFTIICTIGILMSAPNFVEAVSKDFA
row,SMILES,Relative efficacy (ACh)
1,"CCc1cc2n(c(=O)c1)CC1CNC[C@@H]2C1.Cl (single isomer, unassigned; (-)) [Compound 118, (−)4-Ethylcytisine]",0.0057 ± 0.0028
2,"C#Cc1cc2n(c(=O)c1)CC1CNC[C@@H]2C1.Cl (single isomer, unassigned; (-)) [Compound 127, (−)4-(acetylenyl)cytisine]",0.17 ± 0.03

# Molecular target: α3β4 nAChRs (Homo sapiens (Human), UniProt P30926+P32297)
# Sequence (P32297 32-505): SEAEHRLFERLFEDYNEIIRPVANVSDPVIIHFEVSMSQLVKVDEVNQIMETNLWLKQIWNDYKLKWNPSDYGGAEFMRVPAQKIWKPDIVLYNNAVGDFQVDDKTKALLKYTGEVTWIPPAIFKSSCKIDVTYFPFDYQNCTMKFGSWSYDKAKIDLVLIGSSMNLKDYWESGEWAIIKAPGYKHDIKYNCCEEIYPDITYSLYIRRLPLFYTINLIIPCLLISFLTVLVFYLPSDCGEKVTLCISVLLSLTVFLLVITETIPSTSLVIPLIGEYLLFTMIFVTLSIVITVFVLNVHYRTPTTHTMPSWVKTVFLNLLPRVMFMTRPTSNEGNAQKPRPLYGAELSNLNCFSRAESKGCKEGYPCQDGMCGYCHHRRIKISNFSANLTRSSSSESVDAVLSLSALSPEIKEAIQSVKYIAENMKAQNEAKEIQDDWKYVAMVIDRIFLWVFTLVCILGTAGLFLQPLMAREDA
# Sequence (P30926 22-498): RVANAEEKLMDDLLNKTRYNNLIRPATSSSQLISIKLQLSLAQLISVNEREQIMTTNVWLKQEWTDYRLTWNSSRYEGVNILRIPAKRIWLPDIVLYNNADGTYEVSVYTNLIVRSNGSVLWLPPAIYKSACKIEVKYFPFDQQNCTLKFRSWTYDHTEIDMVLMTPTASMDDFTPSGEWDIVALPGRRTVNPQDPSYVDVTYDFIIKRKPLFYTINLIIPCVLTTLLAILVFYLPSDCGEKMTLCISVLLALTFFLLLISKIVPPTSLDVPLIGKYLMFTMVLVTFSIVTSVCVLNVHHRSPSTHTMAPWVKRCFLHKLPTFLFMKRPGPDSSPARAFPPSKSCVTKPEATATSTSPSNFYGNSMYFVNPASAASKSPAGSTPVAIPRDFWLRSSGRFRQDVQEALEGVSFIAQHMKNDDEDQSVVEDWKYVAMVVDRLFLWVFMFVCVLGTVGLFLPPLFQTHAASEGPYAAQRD
# Test: Maximal gating efficacy on α3β4 nAChRs in Xenopus oocytes, two electrode voltage clamp
# Format: cell-based
# Settings: maximal current relative to 1 mM ACh
# Method: as §1, §2, §3
# Maximal gating efficacy of the compounds on α3β4 nAChRs: The concentration of the compounds causing maximal activation of α3β4 nAChRs expressed heterologously in Xenopus oocytes was determined using two electrode voltage clamping.
row,SMILES,Relative efficacy (ACh)
1,"CCNc1cc2n(c(=O)c1)CC1CNCC2C1 (single isomer, unassigned; (+)) [Compound 87, (+)4-(N-ethylamino)cytisine]",0.010 ± 0.009
2,"CCc1cc2n(c(=O)c1)CC1CNC[C@@H]2C1.Cl (single isomer, unassigned; (-)) [Compound 118, (−)4-Ethylcytisine]",0.086 ± 0.106
3,"C#Cc1cc2n(c(=O)c1)CC1CNC[C@@H]2C1.Cl (single isomer, unassigned; (-)) [Compound 127, (−)4-(acetylenyl)cytisine]",0.165 ± 0.064
4,"Cl.O=c1c(C(F)(F)F)c(Br)cc2n1CC1CNC[C@@H]2C1 (single isomer, unassigned; (-)) [Compound 162, (−)3-(Trifluoromethyl)-4-bromocytisine]",0.250 ± 0.077
5,"CN(Cc1cc2n(c(=O)c1)CC1CNC[C@@H]2C1)Cc1cc2n(c(=O)c1)CC1CNC[C@@H]2C1 (stereo in doubt) [Compound 156, Methylamino bis(cytisine) derivative]",0.012 ± 0.007
6,"CNc1cc2n(c(=O)c1)CC1CNC[C@@H]2C1 (single isomer, unassigned; (+)) [Compound 84, (+)4-(N-Methylamino)cytisine]",0.0233 ± 0.005
7,"COC(=O)c1cc2n(c(=O)c1)CC1CNC[C@@H]2C1 (single isomer, unassigned; (-)) [Compound 119, (−)4-carboxymethycytisine]",0.040 ± 0.049
8,"CNc1cc2n(c(=O)c1Br)CC1CNC[C@@H]2C1 (single isomer, unassigned; (+)) [Compound 158, (+)3-Bromo-4-N-methylaminocytisine]",0.057 ± 0.016

# Molecular target: α4β2 nAChR (Homo sapiens (Human), UniProt P17787+P43681)
# Sequence (P43681 29-627 limits assumed): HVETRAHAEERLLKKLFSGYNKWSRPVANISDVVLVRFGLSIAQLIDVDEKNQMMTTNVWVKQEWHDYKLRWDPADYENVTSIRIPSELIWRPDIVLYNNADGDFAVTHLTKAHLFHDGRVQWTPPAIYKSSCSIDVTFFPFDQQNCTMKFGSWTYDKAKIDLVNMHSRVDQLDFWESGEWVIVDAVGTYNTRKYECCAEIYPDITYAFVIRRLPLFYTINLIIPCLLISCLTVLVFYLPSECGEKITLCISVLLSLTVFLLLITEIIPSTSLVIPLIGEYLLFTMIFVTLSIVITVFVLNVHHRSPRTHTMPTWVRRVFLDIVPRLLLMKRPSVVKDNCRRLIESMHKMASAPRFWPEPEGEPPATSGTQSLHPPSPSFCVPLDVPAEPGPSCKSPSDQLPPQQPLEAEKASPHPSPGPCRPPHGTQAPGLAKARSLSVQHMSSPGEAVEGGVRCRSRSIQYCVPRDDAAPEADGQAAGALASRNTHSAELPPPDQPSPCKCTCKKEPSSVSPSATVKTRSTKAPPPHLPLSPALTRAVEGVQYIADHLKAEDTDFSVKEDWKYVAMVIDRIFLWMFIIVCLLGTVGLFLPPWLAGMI
# Sequence (P17787 26-502 limits assumed): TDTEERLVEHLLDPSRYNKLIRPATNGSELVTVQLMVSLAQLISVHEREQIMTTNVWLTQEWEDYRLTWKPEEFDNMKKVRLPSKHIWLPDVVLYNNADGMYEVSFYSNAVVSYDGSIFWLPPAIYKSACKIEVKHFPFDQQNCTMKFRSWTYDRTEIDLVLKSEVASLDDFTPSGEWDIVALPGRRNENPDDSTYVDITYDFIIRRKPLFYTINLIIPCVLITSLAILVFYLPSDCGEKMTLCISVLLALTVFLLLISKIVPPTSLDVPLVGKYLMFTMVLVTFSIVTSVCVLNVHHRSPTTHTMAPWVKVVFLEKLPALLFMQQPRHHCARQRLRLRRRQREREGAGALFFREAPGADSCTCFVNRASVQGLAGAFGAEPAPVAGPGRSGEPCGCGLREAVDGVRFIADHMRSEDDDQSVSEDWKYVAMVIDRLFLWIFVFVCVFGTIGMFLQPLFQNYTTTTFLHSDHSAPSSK
# Test: not given
# Format: binding
# Settings: ratio of Ki values
# Method: HEK 293 cells were grown in Dulbecco's modified Eagle medium supplemented with 10% fetal bovine serum, 1% L-Glutamine, 100 units/ml penicillin G, and 100 μg/streptomycin in a humidified atmosphere containing 10% CO2. The cDNAs encoding α3 and β4 or α4 and β2 (were transfected into the HEK 293 cells at 30% confluency). The cell transfections were carried out in 100 mm Petri dishes using 30 μL of JetPEI™ (Polypus, France) (1 mg/ml, pH 7.2) and 3 μg of each cDNA. After 24 h transfection, the cells were collected, washed with PBS by centrifugation, and used for binding analysis.
# [^3H]-epibatidine saturation binding experiments to HEK transfected α3β4 or α4β2 receptors were performed by means of overnight incubation at 4° C. at concentrations ranging from 0.005 to 1 nM in a buffer containing 50 mM Tris-HCl, pH 7, 150 mM NaCl, 5 mM KCl, 1 mM MgCl2, 2.5 mM CaCl2 and 2 mg/ml BSA, in the presence (aspecific binding) or absence (total binding) of 100 nM cold epibatidine. Specific ligand binding was defined as total binding minus the binding in the presence of 100 nM cold epibatidine.
# After incubation, the membranes of HEK cells transfected with α4β2* or α3β4 subtypes were washed by filtration on GFC filters with ice-cold PBS. The GFC filters were pre-soaked in polyethylenimine and filtered through an harvester apparatus. [^3H]-epibatidine binding was determined by means of liquid scintillation counting in a beta counter.
# The ligand binding data were analyzed by means of nonlinear regression using Prism version 5 (GraphPad Software, Inc., La Jolla, Calif.). The Ki values were calculated from the experimental IC50 values using the Cheng-Prusoff equation for a single population of competitive sites: Ki=IC50/[1+(L/Kd)], where L is the concentration of radioligand used in each experiment and the Kd values were determined by saturation binding experiment. All of the assays were performed in duplicate and repeated at least two-three times.
row,SMILES,Ratio α3β4/α4β2
1,"CCNc1cc2n(c(=O)c1)CC1CNCC2C1 (single isomer, unassigned; (+)) [Compound 87, (+)4-(N-ethylamino)cytisine]",835.2
2,"CCc1cc2n(c(=O)c1)CC1CNC[C@@H]2C1.Cl (single isomer, unassigned; (-)) [Compound 118, (−)4-Ethylcytisine]",1901.3
3,"C#Cc1cc2n(c(=O)c1)CC1CNC[C@@H]2C1.Cl (single isomer, unassigned; (-)) [Compound 127, (−)4-(acetylenyl)cytisine]",710.5
4,"Cl.O=c1c(C(F)(F)F)c(Br)cc2n1CC1CNC[C@@H]2C1 (single isomer, unassigned; (-)) [Compound 162, (−)3-(Trifluoromethyl)-4-bromocytisine]",136.4
5,"CN(Cc1cc2n(c(=O)c1)CC1CNC[C@@H]2C1)Cc1cc2n(c(=O)c1)CC1CNC[C@@H]2C1 (stereo in doubt) [Compound 156, Methylamino bis(cytisine) derivative]",207.3
6,"CNc1cc2n(c(=O)c1)CC1CNC[C@@H]2C1 (single isomer, unassigned; (+)) [Compound 84, (+)4-(N-Methylamino)cytisine]",2546.3
7,"COC(=O)c1cc2n(c(=O)c1)CC1CNC[C@@H]2C1 (single isomer, unassigned; (-)) [Compound 119, (−)4-carboxymethycytisine]",366.5
8,"CNc1cc2n(c(=O)c1Br)CC1CNC[C@@H]2C1 (single isomer, unassigned; (+)) [Compound 158, (+)3-Bromo-4-N-methylaminocytisine]",106.9

# Molecular target: (α4)3(β2)2 nAChRs (Homo sapiens (Human), UniProt P17787+P43681)
# Sequence (P43681 29-627): as the sequence (P43681 29-627 limits assumed) above
# Sequence (P17787 26-502): as the sequence (P17787 26-502 limits assumed) above
# Test: Maximal gating efficacy on (α4)3(β2)2 nAChRs in Xenopus oocytes, two electrode voltage clamp
# Format: cell-based
# Settings: (α4)3(β2)2, low sensitivity stoichiometry; maximal current relative to 1 mM ACh
# Method: as §1, §2, §3
# Maximal gating efficacy of the compounds: The concentration of the compounds of the invention causing maximal activation of the (α4)3(β2)2 nAChRs expressed heterologously in Xenopus oocytes was determined using two electrode voltage clamping.
row,SMILES,Relative efficacy (ACh)
1,"CCNc1cc2n(c(=O)c1)CC1CNCC2C1 (single isomer, unassigned; (+)) [Compound 87, (+)4-(N-ethylamino)cytisine]",0.011 ± 0.001
2,"CCc1cc2n(c(=O)c1)CC1CNC[C@@H]2C1.Cl (single isomer, unassigned; (-)) [Compound 118, (−)4-Ethylcytisine]",0.036 ± 0.055
3,"C#Cc1cc2n(c(=O)c1)CC1CNC[C@@H]2C1.Cl (single isomer, unassigned; (-)) [Compound 127, (−)4-(acetylenyl)cytisine]",0.071 ± 0.009
4,"Cl.O=c1c(C(F)(F)F)c(Br)cc2n1CC1CNC[C@@H]2C1 (single isomer, unassigned; (-)) [Compound 162, (−)3-(Trifluoromethyl)-4-bromocytisine]",0.072 ± 0.026
5,"CN(Cc1cc2n(c(=O)c1)CC1CNC[C@@H]2C1)Cc1cc2n(c(=O)c1)CC1CNC[C@@H]2C1 (stereo in doubt) [Compound 156, Methylamino bis(cytisine) derivative]",0.052 ± 0.007
6,"CNc1cc2n(c(=O)c1)CC1CNC[C@@H]2C1 (single isomer, unassigned; (+)) [Compound 84, (+)4-(N-Methylamino)cytisine]",0.048 ± 0.040
7,"COC(=O)c1cc2n(c(=O)c1)CC1CNC[C@@H]2C1 (single isomer, unassigned; (-)) [Compound 119, (−)4-carboxymethycytisine]",0.021 ± 0.007
8,"CNc1cc2n(c(=O)c1Br)CC1CNC[C@@H]2C1 (single isomer, unassigned; (+)) [Compound 158, (+)3-Bromo-4-N-methylaminocytisine]",0.049 ± 0.012

# Molecular target: (α4)2(β2)3 nAChRs (Homo sapiens (Human), UniProt P17787+P43681)
# Sequence (P43681 29-627): as the sequence (P43681 29-627 limits assumed) above
# Sequence (P17787 26-502): as the sequence (P17787 26-502 limits assumed) above
# Test: Maximal gating efficacy on (α4)2(β2)3 nAChRs in Xenopus oocytes, two electrode voltage clamp
# Format: cell-based
# Settings: (α4)2(β2)3, high sensitivity receptors; maximal current relative to 1 mM ACh
# Method: as §1, §2, §3
# Maximal gating efficacy of compounds on (α4)2(β2)3 receptors (high sensitivity receptors): The concentration of the compounds causing maximal activation of the (α4)2(β2)3 nAChRs expressed heterologously in Xenopus oocytes was determined using two electrode voltage clamping.
row,SMILES,Relative efficacy (ACh)
1,"CCNc1cc2n(c(=O)c1)CC1CNCC2C1 (single isomer, unassigned; (+)) [Compound 87, (+)4-(N-ethylamino)cytisine]",0.023 ± 0.032
2,"CCc1cc2n(c(=O)c1)CC1CNC[C@@H]2C1.Cl (single isomer, unassigned; (-)) [Compound 118, (−)4-Ethylcytisine]",0.062 ± 0.025
3,"C#Cc1cc2n(c(=O)c1)CC1CNC[C@@H]2C1.Cl (single isomer, unassigned; (-)) [Compound 127, (−)4-(acetylenyl)cytisine]",0.009 ± 0.0009
4,"Cl.O=c1c(C(F)(F)F)c(Br)cc2n1CC1CNC[C@@H]2C1 (single isomer, unassigned; (-)) [Compound 162, (−)3-(Trifluoromethyl)-4-bromocytisine]",0.042 ± 0.060
5,"CN(Cc1cc2n(c(=O)c1)CC1CNC[C@@H]2C1)Cc1cc2n(c(=O)c1)CC1CNC[C@@H]2C1 (stereo in doubt) [Compound 156, Methylamino bis(cytisine) derivative]",No response
6,"CNc1cc2n(c(=O)c1)CC1CNC[C@@H]2C1 (single isomer, unassigned; (+)) [Compound 84, (+)4-(N-Methylamino)cytisine]",0.042 ± 0.059
7,"COC(=O)c1cc2n(c(=O)c1)CC1CNC[C@@H]2C1 (single isomer, unassigned; (-)) [Compound 119, (−)4-carboxymethycytisine]",0.0065 ± 0.0005
8,"CNc1cc2n(c(=O)c1Br)CC1CNC[C@@H]2C1 (single isomer, unassigned; (+)) [Compound 158, (+)3-Bromo-4-N-methylaminocytisine]",0.038 ± 0.054

# From patent US11667638B2, “4-substitued cytisine analogues” (The University of Bristol, priority 2016, dated 2023)
